# Source: patent US20190307843A1, “SINGLE DOSE METHODS FOR PREVENTING AND TREATING FUNGAL INFECTIONS” (Cidara Therapeutics, Inc., priority 2016, published 2019)
# Like-named read-outs stand apart in the source and are kept apart here.
# Columns and labels:
# C. albicans strain 529L = assay: Rat model of vulvovaginal candidiasis, vaginal lavage and tissue burden; format: in vivo, Candida albicans
# Candida auris strains = assay: Candida auris antifungal susceptibility testing (CLSI M27-A3), 38 strains; format: cell-based; settings: for MIC: Candidozyma auris
# [1] = system: C. albicans SC-5314 biofilms; assay: Mature phase biofilms (treatment), XTT metabolic activity and CSLM; format: cell-based, Candida albicans
# [2] = format: in vivo, rat; settings: rat, in vivo
# Procedure: The rats were monitored at a frequency appropriate for their clinical condition. Rat weights were recorded at least once daily to ensure animals remained within ethical limits.
# [3] = 20 mg/kg PO Dosed Once, lavage Day 1 post infection, pre-treatment
# [4] = 20 mg/kg PO Dosed Once, lavage Day 2 post infection
# [5] = 20 mg/kg PO Dosed Once, lavage Day 3 post infection
# [6] = 20 mg/kg PO Dosed Once, lavage Day 5 post infection
# [7] = 20 mg/kg PO Dosed Once, lavage Day 7 post infection
# [8] = 20 mg/kg PO Dosed Once, lavage Day 9 post infection
# [9] = 20 mg/kg PO Dosed Once, terminal vaginal tissue Day +9 post infection
# [10] = 20 mg/kg PO Dosed Twice, lavage Day 1 post infection, pre-treatment
# [11] = 20 mg/kg PO Dosed Twice, lavage Day 2 post infection
# [12] = 20 mg/kg PO Dosed Twice, lavage Day 3 post infection
# [13] = 20 mg/kg PO Dosed Twice, lavage Day 5 post infection
# [14] = 20 mg/kg PO Dosed Twice, lavage Day 7 post infection
# [15] = 20 mg/kg PO Dosed Twice, lavage Day 9 post infection
# [16] = 20 mg/kg PO Dosed Twice, terminal vaginal tissue Day +9 post infection
structure (smiles),measurement,setting,value
OC(Cn1cncn1)(Cn1cncn1)c1ccc(F)cc1F [fluconazole],Group Geometric mean,C. albicans strain 529L; [3],3.16 × 10^3 CFU/mL
same,Log Group Geometric mean,C. albicans strain 529L; [3],3.50 CFU/mL
same,Log reduction from vehicle control,C. albicans strain 529L; [3],−1.06 CFU/mL
same,Group Geometric mean,C. albicans strain 529L; [4],1.50 × 10^2 CFU/mL
same,Log Group Geometric mean,C. albicans strain 529L; [4],2.18 CFU/mL
same,Log reduction from vehicle control,C. albicans strain 529L; [4],1.52 CFU/mL
same,Group Geometric mean,C. albicans strain 529L; [5],1.00 CFU/mL
same,Log Group Geometric mean,C. albicans strain 529L; [5],0.00 CFU/mL
same,Log reduction from vehicle control,C. albicans strain 529L; [5],3.57 CFU/mL
same,Group Geometric mean,C. albicans strain 529L; [6],1.00 CFU/mL
same,Log Group Geometric mean,C. albicans strain 529L; [6],0.00 CFU/mL
same,Log reduction from vehicle control,C. albicans strain 529L; [6],4.22 CFU/mL
same,Group Geometric mean,C. albicans strain 529L; [7],1.00 CFU/mL
same,Log Group Geometric mean,C. albicans strain 529L; [7],0.00 CFU/mL
same,Log reduction from vehicle control,C. albicans strain 529L; [7],4.18 CFU/mL
same,Group Geometric mean,C. albicans strain 529L; [8],1.00 CFU/mL
same,Log Group Geometric mean,C. albicans strain 529L; [8],0.00 CFU/mL
same,Log reduction from vehicle control,C. albicans strain 529L; [8],4.30 CFU/mL
same,Group Geometric mean,C. albicans strain 529L; [9],1.00 CFU/g
same,Log Group Geometric mean,C. albicans strain 529L; [9],0.00 CFU/g
same,Log reduction from vehicle control,C. albicans strain 529L; [9],5.49 CFU/g
same,Group Geometric mean,C. albicans strain 529L; [10],1.04 × 10^3 CFU/mL
same,Log Group Geometric mean,C. albicans strain 529L; [10],3.02 CFU/mL
same,Log reduction from vehicle control,C. albicans strain 529L; [10],−0.58 CFU/mL
same,Group Geometric mean,C. albicans strain 529L; [11],1.27 × 10^2 CFU/mL
same,Log Group Geometric mean,C. albicans strain 529L; [11],2.10 CFU/mL
same,Log reduction from vehicle control,C. albicans strain 529L; [11],1.59 CFU/mL
same,Group Geometric mean,C. albicans strain 529L; [12],1.49 CFU/mL
same,Log Group Geometric mean,C. albicans strain 529L; [12],0.17 CFU/mL
same,Log reduction from vehicle control,C. albicans strain 529L; [12],3.40 CFU/mL
same,Group Geometric mean,C. albicans strain 529L; [13],1.00 CFU/mL
same,Log Group Geometric mean,C. albicans strain 529L; [13],0.00 CFU/mL
same,Log reduction from vehicle control,C. albicans strain 529L; [13],4.22 CFU/mL
same,Group Geometric mean,C. albicans strain 529L; [14],1.00 CFU/mL
same,Log Group Geometric mean,C. albicans strain 529L; [14],0.00 CFU/mL
same,Log reduction from vehicle control,C. albicans strain 529L; [14],4.18 CFU/mL
same,Group Geometric mean,C. albicans strain 529L; [15],1.00 CFU/mL
same,Log Group Geometric mean,C. albicans strain 529L; [15],0.00 CFU/mL
same,Log reduction from vehicle control,C. albicans strain 529L; [15],4.30 CFU/mL
same,Group Geometric mean,C. albicans strain 529L; [16],1.00 CFU/g
same,Log Group Geometric mean,C. albicans strain 529L; [16],0.00 CFU/g
same,Log reduction from vehicle control,C. albicans strain 529L; [16],5.49 CFU/g
same,rats having burden below the limit of detection,"C. albicans strain 529L; fluconazole 20 mg/kg PO once or twice, lavage Day 3 post infection",11/12
same,reduction in burden,"C. albicans strain 529L; fluconazole 20 mg/kg PO, lavage Day 2 post infection",about 1.6 Log10 CFU/mL
same,lavage burden,"C. albicans strain 529L; fluconazole once or twice, all rats, Day 5 post infection",below the limit of detection
same,terminal vaginal tissue burden,"C. albicans strain 529L; fluconazole once or twice, all rats, Day 9",below the limit of detection
same,MIC,"Candida auris strains; 24 h, strain 1 VPCI 669/P/12",> 128 µg/mL
same,MIC,"Candida auris strains; 24 h, strain 2 VCPI 671/P/12",> 128 µg/mL
same,MIC,"Candida auris strains; 24 h, strain 3 VCPI 674/P/12",> 128 µg/mL
same,MIC,"Candida auris strains; 24 h, strain 4 VCPI 683/P/12",> 128 µg/mL
same,MIC,"Candida auris strains; 24 h, strain 5 VCPI 692/P/12",> 128 µg/mL
same,MIC,"Candida auris strains; 24 h, strain 6 VCPI 712/P/12",> 128 µg/mL
same,MIC,"Candida auris strains; 24 h, strain 7 VCPI 471/P/13",> 128 µg/mL
same,MIC,"Candida auris strains; 24 h, strain 8 VCPI 475/P/13",> 128 µg/mL
same,MIC,"Candida auris strains; 24 h, strain 9 VCPI 478/P/13",> 128 µg/mL
same,MIC,"Candida auris strains; 24 h, strain 10 VCPI 479/P/13",> 128 µg/mL
same,MIC,"Candida auris strains; 24 h, strain 11 VCPI 480/P/13",> 128 µg/mL
same,MIC,"Candida auris strains; 24 h, strain 12 VCPI 482/P/13",> 128 µg/mL
same,MIC,"Candida auris strains; 24 h, strain 13 VCPI 483/P/13",> 128 µg/mL
same,MIC,"Candida auris strains; 24 h, strain 14 VCPI 1130/P/13, 24 h, read-out: MIC",32 µg/mL
same,MIC,"Candida auris strains; 24 h, strain 15 VCPI 1132/P/13",128 µg/mL
same,MIC,"Candida auris strains; 24 h, strain 16 VCPI 1133/P/13",> 128 µg/mL
same,MIC,"Candida auris strains; 24 h, strain 17 VCPI 105/P/14",128 µg/mL
same,MIC,"Candida auris strains; 24 h, strain 18 VCPI 107/P/14, 24 h, read-out: MIC",64 µg/mL
same,MIC,"Candida auris strains; 24 h, strain 19 VCPI 510/P/14",> 128 µg/mL
same,MIC,"Candida auris strains; 24 h, strain 20 VCPI 511/P/14",128 µg/mL
same,MIC,"Candida auris strains; 24 h, strain 21 VCPI 512/P/14, 24 h, read-out: MIC",16 µg/mL
same,MIC,"Candida auris strains; 24 h, strain 22 VCPI 513/P/14",> 128 µg/mL
same,MIC,"Candida auris strains; 24 h, strain 23 VCPI 514/P/14",> 128 µg/mL
same,MIC,"Candida auris strains; 24 h, strain 24 VCPI 250/P/14, 24 h, read-out: MIC",64 µg/mL
same,MIC,"Candida auris strains; 24 h, strain 25 VCPI 265/P/14",> 128 µg/mL
same,MIC,"Candida auris strains; 24 h, strain 26 VCPI 266/P/14",> 128 µg/mL
same,MIC,"Candida auris strains; 24 h, strain 27 VCPI 462/P/14",> 128 µg/mL
same,MIC,"Candida auris strains; 24 h, strain 28 VCPI 463/P/14",> 128 µg/mL
same,MIC,"Candida auris strains; 24 h, strain 29 VCPI 467/P/14",> 128 µg/mL
same,MIC,"Candida auris strains; 24 h, strain 30 VCPI 471a/P/14",> 128 µg/mL
same,MIC,"Candida auris strains; 24 h, strain 31 VCPI 478/P/14",> 128 µg/mL
same,MIC,"Candida auris strains; 24 h, strain 32 VCPI 518/P/14",> 128 µg/mL
same,MIC,"Candida auris strains; 24 h, strain 33 VCPI 550/P/14",> 128 µg/mL
same,MIC,"Candida auris strains; 24 h, strain 34 VCPI 714/P/14",> 128 µg/mL
same,MIC,"Candida auris strains; 24 h, strain 35 VCPI 717/P/14, 24 h, read-out: MIC",4 µg/mL
same,MIC,"Candida auris strains; 24 h, strain 36 VCPI 1060/P/14",> 128 µg/mL
same,MIC,"Candida auris strains; 24 h, strain 37 VCPI 74/P/15",> 128 µg/mL
same,MIC,"Candida auris strains; 24 h, strain 38 VCPI 213/P/15",> 128 µg/mL
same,MIC,"Candida auris strains; 48 h, strain 1 VPCI 669/P/12",> 128 µg/mL
same,MIC,"Candida auris strains; 48 h, strain 2 VCPI 671/P/12",> 128 µg/mL
same,MIC,"Candida auris strains; 48 h, strain 3 VCPI 674/P/12",128 µg/mL
same,MIC,"Candida auris strains; 48 h, strain 4 VCPI 683/P/12",> 128 µg/mL
same,MIC,"Candida auris strains; 48 h, strain 5 VCPI 692/P/12",> 128 µg/mL
same,MIC,"Candida auris strains; 48 h, strain 6 VCPI 712/P/12",128 µg/mL
same,MIC,"Candida auris strains; 48 h, strain 7 VCPI 471/P/13",> 128 µg/mL
same,MIC,"Candida auris strains; 48 h, strain 8 VCPI 475/P/13, 48 h, read-out: MIC",64 µg/mL
same,MIC,"Candida auris strains; 48 h, strain 9 VCPI 478/P/13",128 µg/mL
same,MIC,"Candida auris strains; 48 h, strain 10 VCPI 479/P/13",128 µg/mL
same,MIC,"Candida auris strains; 48 h, strain 11 VCPI 480/P/13",> 128 µg/mL
same,MIC,"Candida auris strains; 48 h, strain 12 VCPI 482/P/13",> 128 µg/mL
same,MIC,"Candida auris strains; 48 h, strain 13 VCPI 483/P/13",128 µg/mL
same,MIC,"Candida auris strains; 48 h, strain 14 VCPI 1130/P/13, 48 h, read-out: MIC",64 µg/mL
same,MIC,"Candida auris strains; 48 h, strain 15 VCPI 1132/P/13",128 µg/mL
same,MIC,"Candida auris strains; 48 h, strain 16 VCPI 1133/P/13",> 128 µg/mL
same,MIC,"Candida auris strains; 48 h, strain 17 VCPI 105/P/14",128 µg/mL
same,MIC,"Candida auris strains; 48 h, strain 18 VCPI 107/P/14",> 128 µg/mL
same,MIC,"Candida auris strains; 48 h, strain 19 VCPI 510/P/14",> 128 µg/mL
same,MIC,"Candida auris strains; 48 h, strain 20 VCPI 511/P/14",> 128 µg/mL
same,MIC,"Candida auris strains; 48 h, strain 21 VCPI 512/P/14",> 128 µg/mL
same,MIC,"Candida auris strains; 48 h, strain 22 VCPI 513/P/14",> 128 µg/mL
same,MIC,"Candida auris strains; 48 h, strain 23 VCPI 514/P/14",> 128 µg/mL
same,MIC,"Candida auris strains; 48 h, strain 24 VCPI 250/P/14",> 128 µg/mL
same,MIC,"Candida auris strains; 48 h, strain 25 VCPI 265/P/14",> 128 µg/mL
same,MIC,"Candida auris strains; 48 h, strain 26 VCPI 266/P/14",> 128 µg/mL
same,MIC,"Candida auris strains; 48 h, strain 27 VCPI 462/P/14",> 128 µg/mL
same,MIC,"Candida auris strains; 48 h, strain 28 VCPI 463/P/14",> 128 µg/mL
same,MIC,"Candida auris strains; 48 h, strain 29 VCPI 467/P/14",> 128 µg/mL
same,MIC,"Candida auris strains; 48 h, strain 30 VCPI 471a/P/14",> 128 µg/mL
same,MIC,"Candida auris strains; 48 h, strain 31 VCPI 478/P/14",> 128 µg/mL
same,MIC,"Candida auris strains; 48 h, strain 32 VCPI 518/P/14",> 128 µg/mL
same,MIC,"Candida auris strains; 48 h, strain 33 VCPI 550/P/14",> 128 µg/mL
same,MIC,"Candida auris strains; 48 h, strain 34 VCPI 714/P/14",> 128 µg/mL
same,MIC,"Candida auris strains; 48 h, strain 35 VCPI 717/P/14",> 128 µg/mL
same,MIC,"Candida auris strains; 48 h, strain 36 VCPI 1060/P/14",> 128 µg/mL
same,MIC,"Candida auris strains; 48 h, strain 37 VCPI 74/P/15",> 128 µg/mL
same,MIC,"Candida auris strains; 48 h, strain 38 VCPI 213/P/15",> 128 µg/mL
same,number of resistant isolates,Candida auris strains; of 38 C. auris isolates,38
same,thickness of biofilms,[1]; fluconazole,no effect
same,effect on mature biofilms,"[1]; fluconazole 1 and 4 μg/ml, 24 h",did not affect Candida biofilms
same,tolerability,[2],well tolerated with no adverse events observed
